Source: paper PMC6271520, “Isolation and Characterization of an α-Glucosidase Inhibitor from Musa spp. (Baxijiao) Flowers” (Molecules, 2014)
Read-outs that look alike come from different tables or passages of the source.

How the values were obtained:
[1] = molecular target: T1, α-Glucosidase from Bacillus stearothermophilus (Geobacillus stearothermophilus, UniProt A0ACH1E9U3); test: α-glucosidase inhibitory activity assay (pNPG substrate, PNP release at 405 nm); assay type: biochemical; conditions: for IC50: pH 6.8, 37 °C, 2.5 mmol/L pNPG
T1 sequence (A0ACH1E9U3 entry or part of it): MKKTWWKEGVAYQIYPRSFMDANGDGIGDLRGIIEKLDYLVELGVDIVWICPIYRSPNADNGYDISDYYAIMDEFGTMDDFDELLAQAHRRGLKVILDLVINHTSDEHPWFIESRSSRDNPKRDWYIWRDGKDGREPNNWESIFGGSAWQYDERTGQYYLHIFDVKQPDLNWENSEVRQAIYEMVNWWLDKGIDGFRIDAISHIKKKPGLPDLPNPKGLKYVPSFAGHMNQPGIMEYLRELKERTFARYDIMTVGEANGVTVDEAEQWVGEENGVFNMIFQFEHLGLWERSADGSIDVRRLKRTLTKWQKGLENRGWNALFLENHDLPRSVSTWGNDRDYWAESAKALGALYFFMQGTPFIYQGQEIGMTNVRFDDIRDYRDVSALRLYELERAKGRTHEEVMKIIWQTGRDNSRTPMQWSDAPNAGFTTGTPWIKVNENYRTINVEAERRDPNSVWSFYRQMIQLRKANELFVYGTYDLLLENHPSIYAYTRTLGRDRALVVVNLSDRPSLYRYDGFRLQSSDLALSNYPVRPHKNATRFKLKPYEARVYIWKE
Method: Louis, MO, USA). […] All the reagents were of analytical grade. […] Then 0.5 mL of 2.5 mmol/L p-nitrophenyl-α-D-glucopyranoside as the substrate was added to the mixture to start the reaction. The reaction was incubated at 37 °C for 15 min and stopped by adding 1 mL 0.2 mol/L sodium carbonate solution. The α-glucosidase activity was determined by measuring the release of PNP at 405 nm. For the inhibitory activity assay, crude ethanol extracts were dissolved in 50% aqueous dimethyl sulfoxide, while the chloroform, ethyl acetate, and n-butanol fractions and puriﬁed compounds were dissolved in dimethyl sulfoxide. […] The inhibition of the test sample on α-glucosidase was calculated as follows: […] where Acontrol: Absorbance for 100% enzyme activity (+enzyme), Asample: Test sample (+enzyme + inhibitor) and Abackground: Inhibitor background absorbance (−enzyme + inhibitor).

α-glucosidase [2] = molecular target: α-glucosidase; set-up: method as in PMID 17270224; conditions: vanillic acid from stem bark of Fagara tessmannii; cited from earlier work
α-glucosidase [3] = molecular target: α-glucosidase; set-up: method as in doi:10.1016/j.phytol.2013.08.005; conditions: β-sitosterol isolated from Chrozophora plicata; cited from earlier work
[4] = molecular target: T1, α-Glucosidase from Bacillus stearothermophilus; test: Lineweaver–Burk plot analysis of inhibition kinetics of α-glucosidase; assay type: biochemical; conditions: for mode of inhibition: Lineweaver–Burk plot, varying pNPG; for Ki: from Vmax at 12.5 and 50.0 mg/L (compound 5), 400 and 800 mg/L (compounds 3 and 4)
Method: The mechanism of the binding of compounds 3, 4 and 5 to α-glucosidase was further studied.
The Ki value was calculated using the values of Vmax obtained at 12.5 and 50.0 mg/L for compound 5 and the values of Vmax obtained at 400 and 800 mg/L for compounds 3 and 4, respectively.
To determine the kinetic mode of inhibition of isolated α-glucosidase inhibitors, Lineweaver–Burk plot analysis was performed. This kinetics study was carried out in the presence and absence of inhibitors with varying concentrations of 4-NPGP as the substrate. The mode of inhibition of the test compounds was assessed on the basis of the inhibitory effects on Km (dissociation constant) and Vmax (maximum reaction velocity) of the enzyme determined using a Lineweaver-Burk plot, which is the double reciprocal plot of the enzyme reaction velocity (V) versus the substrate (p-nitrophenyl β-D-glucopyranoside, pNPG) concentration (1/V versus 1/[pNPG]).

[5] = read-out: IC50 (mg/L) (converted)

IC50 [1, 5] [µM] | Compound | IC50 ([1]; read-out: IC50 (mg/L)) [µM] | mode of inhibition [4] | also measured
1550 | C[C@H]1O[C@H](O[C@H]2[C@H](O)[C@@H](O)[C@@H](O[C@H]3[C@H](O)[C@@H](O)C(O)O[C@@H]3CO)O[C@@H]2CO)[C@H](O)[C@@H](O)[C@@H]1N[C@H]1C=C(CO)[C@@H](O)[C@H](O)[C@H]1O (stereo partly drawn) [Acarbose, reference compound] | – | – | inhibition at 1500 µg/mL ([1]; at 1.5 mg/mL, read-out: percent inhibition against α-glucosidase): 56.4%
– | COc1cc(C(=O)O)ccc1O [Compound 1, Vanillic acid] | 11900 | – | IC50 (α-glucosidase [2]): 69.4 ± 0.8 µM
– | COc1cc(/C=C/C(=O)O)ccc1O [Compound 2, Ferulic acid] | 6480 | – | –
– | CC[C@H](CC[C@@H](C)[C@H]1CC[C@H]2[C@@H]3CC=C4C[C@@H](O)CC[C@]4(C)[C@H]3CC[C@]12C)C(C)C [Compound 3, β-Sitosterol] | 684 | competitive inhibitors | IC50 (α-glucosidase [3]): 287.1 ± 0.75 µM; Ki ([4]; read-out: inhibition constant (Ki)): 48.4 µM
429 | CC[C@H](CC[C@@H](C)[C@H]1CC[C@H]2[C@@H]3CC=C4C[C@@H](O[C@@H]5O[C@H](CO)[C@@H](O)[C@H](O)[C@H]5O)CC[C@]4(C)[C@H]3CC[C@]12C)C(C)C [Compound 4, Daucosterol] | – | competitive inhibitors | Ki ([4]; read-out: inhibition constant (Ki) (converted)): 4.06 µM
